IC50 data for 29 compounds are collected here from patent publication US7704995B2 (Exelixis, Inc., priority 2003, dated 2010).

As a reminder, the IC50 is the concentration that inhibits the measured activity by half.

The structures appear in SMILES notation.

The assay deals with T1, Chk1 (Homo sapiens, UniProt O14757).
T1 construct: purchased Upstate Biotechnology
T1 sequence (O14757 1-476): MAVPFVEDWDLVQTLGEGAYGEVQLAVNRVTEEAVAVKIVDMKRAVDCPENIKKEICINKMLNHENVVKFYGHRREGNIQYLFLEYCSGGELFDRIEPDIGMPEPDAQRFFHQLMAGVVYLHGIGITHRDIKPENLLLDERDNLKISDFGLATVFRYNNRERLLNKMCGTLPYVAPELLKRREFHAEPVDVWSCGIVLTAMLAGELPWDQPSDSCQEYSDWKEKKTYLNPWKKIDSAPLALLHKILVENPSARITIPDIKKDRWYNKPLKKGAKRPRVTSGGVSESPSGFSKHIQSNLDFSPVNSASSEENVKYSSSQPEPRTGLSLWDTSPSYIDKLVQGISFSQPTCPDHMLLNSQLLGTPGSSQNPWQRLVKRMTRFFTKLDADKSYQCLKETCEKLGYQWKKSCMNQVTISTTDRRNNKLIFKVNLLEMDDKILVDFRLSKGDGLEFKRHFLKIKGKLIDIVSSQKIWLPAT
The assay can be described thus: Chk1 kinase assay: incorporation of γ-33P ATP into immobilized myelin basic protein. It counts as biochemical. As to conditions: read-out: Chk1 IC50. As to the method:
Chk1 and Chk2 assays were performed by measuring incorporation of γ-^33P ATP into immobilized myelin basic protein (MBP). High binding white 384 well plates (Greiner) were coated with MBP (Sigma #M-1891) by incubation of 60 ul/well of 20 μg/ml MBP in Tris-buffered saline (TBS; 50 mM Tris pH 8.0, 138 mM NaCl, 2.7 mM KCl) for 24 hours at 4° C. Plates were washed 3× with 100 μl TBS. Kinase reactions were carried out in a total volume of 34 μl in kinase buffer (5 mM Hepes pH 7.6, 15 mM NaCl, 0.01% bovine gamma globulin (Sigma #I-5506), 10 mM MgCl2, 1 mM DTT, 0.02% TritonX-100). Compound dilutions were performed in DMSO and added to assay wells to a final DMSO concentration of 1%. Each data point was measured in duplicate, and at least two duplicate assays were performed for each individual compound determination. Chk1 and Chk2 enzymes (Upstate Biotechnology) were added to final concentrations of 10 nM (Chk1) or 20 nM (Chk2). A mixture of unlabeled ATP and γ-^33P ATP was added to start the reaction (2×10^6 cpm of γ-^33P ATP per well (3000 Ci/mmole) and either 10 μM or 30 μM unlabeled ATP (for Chk1 and Chk2 assays respectively). The reaction was carried out for 1 hour at room temperature with shaking. Plates were washed 7× with TBS, followed by the addition of 50 μl/well scintillation fluid (Wallac). Plates were read using a Wallac Trilux counter. This is only one format of such assays, various other formats are possible, as known to those skilled in the art.
The above assay procedure can be used to determine the IC50 for inhibition and/or the inhibition constant Ki. The IC50 is defined as the concentration of compound required to reduce the enzyme activity by 50% under the conditions of the assay. […] The Ki for a compound may be determined from the IC50 based on three assumptions. First, only one compound molecule binds to the enzyme and there is no cooperativity. […] Third, the enzymatic rate of the enzyme-inhibitor complex is zero. The rate (i.e., compound concentration) data are fitted to the equation: […]

Take `CNC(=O)c1nc(-c2cccc(C(=O)O)c2)cnc1N` [Example 92, 3-{5-amino-6-[(methylamino)carbonyl]pyrazin-2-yl}benzoic acid]: the IC50 was no less than 10 µM.

For `CNC(=O)c1nc(-c2cccc(C(=O)N3CCN(C)CC3)c2)cnc1N` [Example 93, 3-amino-N-methyl-6-{3-[(4-methylpiperazin-1-yl)carbonyl]phenyl}pyrazine-2-carboxamide], the IC50 fell in the range of 1 to 10 µM.

`CNC(=O)c1nc(-c2cccc(C(=O)NCCc3ccccc3)c2)cnc1N` [Example 94, 3-amino-N-methyl-6-(3-{[(2-phenylethyl)amino]carbonyl}phenyl)pyrazine-2-carboxamide]: the IC50 was 0.05 to 1 µM.

As to `CNC(=O)c1nc(-c2cccc(C(=O)NCc3ccc(OC)cc3)c2)cnc1N` [Example 95, 3-amino-N-methyl-6-{3-[({[4-(methyloxy)phenyl]methyl}amino)carbonyl]phenyl}pyrazine-2-carboxamide], the IC50 lay in the range of 0.05 to 1 µM.

Regarding `CNC(=O)c1nc(-c2cccc(C(=O)N[C@@H]3CCc4ccccc43)c2)cnc1N` [Example 96, 3-amino-6-(3-{[(1R)-2,3-dihydro-1H-inden-1-ylamino]carbonyl}phenyl)-N-methylpyrazine-2-carboxamide], the IC50 lay in the range of 1 to 10 µM.

Consider `CNC(=O)c1nc(-c2cccc(C(=O)N[C@H]3CCc4ccccc43)c2)cnc1N` [Example 97, 3-amino-6-(3-{[(1S)-2,3-dihydro-1H-inden-1-ylamino]carbonyl}phenyl)-N-methylpyrazine-2-carboxamide], for which the IC50 was in the range of 0.05 to 1 µM.

Consider `CNC(=O)c1nc(-c2cccc(C(=O)NCc3ccc(Cl)cc3)c2)cnc1N` [Example 98, 3-amino-6-[3-({[(4-chlorophenyl)methyl]amino}carbonyl)phenyl]-N-methylpyrazine-2-carboxamide], for which the IC50 was 0.05 to 1 µM.

For the compound `CNC(=O)c1nc(-c2cccc(C(=O)N(C)Cc3ccccc3)c2)cnc1N` [Example 99, 3-amino-N-methyl-6-(3-{[methyl(phenylmethyl)amino]carbonyl}phenyl)pyrazine-2-carboxamide], the 50% inhibitory concentration (IC50) lay within 1 to 10 µM.

`CNC(=O)c1nc(-c2cccc(C(=O)NCc3ccc(Cl)cc3Cl)c2)cnc1N` [Example 100, 3-amino-6-[3-({[(2,4-dichlorophenyl)methyl]amino}carbonyl)phenyl]-N-methylpyrazine-2-carboxamide]: the half-maximal inhibitory concentration (IC50) was in the range of 0.05 to 1 µM.

For the compound `CNC(=O)c1nc(-c2cccc(C(=O)NCc3ccc(C)cc3)c2)cnc1N` [Example 101, 3-amino-N-methyl-6-[3-({[(4-methylphenyl)methyl]amino}carbonyl)phenyl]pyrazine-2-carboxamide], the IC50 lay in the range of 0.05 to 1 µM.

`CNC(=O)c1nc(-c2cccc(C(=O)NCc3ccc(C(F)(F)F)cc3)c2)cnc1N` [Example 102, 3-amino-N-methyl-6-{3-[({[4-(trifluoromethyl)phenyl]methyl}amino)carbonyl]phenyl}pyrazine-2-carboxamide]: the IC50 was in the range of 0.05 to 1 µM.

For `CNC(=O)c1nc(-c2cccc(C(=O)NCc3ccc(F)cc3)c2)cnc1N` [Example 103, 3-amino-6-[3-({[(4-fluorophenyl)methyl]amino}carbonyl)phenyl]-N-methylpyrazine-2-carboxamide], the IC50 is 0.05 to 1 µM.

Regarding `CNC(=O)c1nc(-c2cccc(C(=O)NC3Cc4ccccc4C3)c2)cnc1N` [Example 104, 3-amino-6-{3-[(2,3-dihydro-1H-inden-2-ylamino)carbonyl]phenyl}-N-methylpyrazine-2-carboxamide], the IC50 is 0.05 to 1 µM.

With `CNC(=O)c1nc(-c2cccc(NC(=O)c3cccc(OC)c3)c2)cnc1N` [Example 105, 3-amino-N-methyl-6-[3-({[3-(methyloxy)phenyl]carbonyl}amino)phenyl]pyrazine-2-carboxamide], the IC50 lay within 0.05 to 1 µM.

As to `CNC(=O)c1nc(-c2cccc(NC(=O)c3ccc(OC)cc3)c2)cnc1N` [Example 106, 3-amino-N-methyl-6-[3-({[4-(methyloxy)phenyl]carbonyl}amino)phenyl]pyrazine-2-carboxamide], the IC50 was 0.05 to 1 µM.

In the case of `CNC(=O)c1nc(-c2cccc(C(=O)NCc3cccc(OC)c3)c2)cnc1N` [Example 107, 3-amino-N-methyl-6-{3-[({[3-(methyloxy)phenyl]methyl}amino)carbonyl]phenyl}pyrazine-2-carboxamide], the IC50 fell in the range of 0.05 to 1 µM.

Turning to `CNC(=O)c1nc(-c2cccc(C(=O)N[C@H](C)c3ccc(OC)cc3)c2)cnc1N` [Example 108, 3-amino-N-methyl-6-{3-[({(1R)-1-[4-(methyloxy)phenyl]ethyl}amino)carbonyl]phenyl}pyrazine-2-carboxamide], the IC50 was in the range of 1 to 10 µM.

Consider `CNC(=O)c1nc(-c2cccc(C(=O)NCc3ccccc3C(F)(F)F)c2)cnc1N` [Example 109, 3-amino-N-methyl-6-{3-[({[2-(trifluoromethyl)phenyl]methyl}amino)carbonyl]phenyl}pyrazine-2-carboxamide], for which the IC50 was in the range of 0.05 to 1 µM.

As for `CNC(=O)c1nc(-c2cccc(C(=O)NCc3cccc(F)c3)c2)cnc1N` [Example 110, 3-amino-6-[3-({[(3-fluorophenyl)methyl]amino}carbonyl)phenyl]-N-methylpyrazine-2-carboxamide], the IC50 was in the range of 0.05 to 1 µM.

For the compound `CNC(=O)c1nc(-c2cccc(NC(=O)c3ccc(Cl)cc3)c2)cnc1N` [Example 111, 3-amino-6-(3-{[(4-chlorophenyl)carbonyl]amino}phenyl)-N-methylpyrazine-2-carboxamide], the IC50 was 0.05 to 1 µM.

On to `CNC(=O)c1nc(-c2cccc(C(=O)NC(C)c3ccc(F)cc3)c2)cnc1N` (centres unmarked) [Example 112, 3-amino-6-[3-({[1-(4-fluorophenyl)ethyl]amino}carbonyl)phenyl]-N-methylpyrazine-2-carboxamide], for which the IC50 is 1 to 10 µM.

Regarding `CNC(=O)c1nc(-c2cccc(C(=O)NCc3cccc(OC)c3OC)c2)cnc1N` [Example 113, 3-amino-6-{3-[({[2,3-bis(methyloxy)phenyl]methyl}amino)carbonyl]phenyl}-N-methylpyrazine-2-carboxamide], the IC50 lay in the range of 0.05 to 1 µM.

On to `CNC(=O)c1nc(-c2cccc(C(=O)N(Cc3ccccc3)Cc3ccccc3)c2)cnc1N` [Example 114, 3-amino-6-(3-{[bis(phenylmethyl)amino]carbonyl}phenyl)-N-methylpyrazine-2-carboxamide], for which the IC50 is 1 to 10 µM.

Turning to `CNC(=O)c1nc(-c2cccc(C(=O)NCc3ccc(OC)cc3OC)c2)cnc1N` [Example 115, 3-amino-6-{3-[({[2,4-bis(methyloxy)phenyl]methyl}amino)carbonyl]phenyl}-N-methylpyrazine-2-carboxamide], the IC50 lay within 0.05 to 1 µM.

For `CCN(Cc1ccncc1)C(=O)c1cccc(-c2cnc(N)c(C(=O)NC)n2)c1` [Example 116, 3-amino-6-(3-{[ethyl(pyridin-4-ylmethyl)amino]carbonyl}phenyl)-N-methylpyrazine-2-carboxamide], the IC50 lay in the range of 1 to 10 µM.

With `CNC(=O)c1nc(-c2cccc(C(=O)N3CCN(Cc4ccccc4)CC3)c2)cnc1N` [Example 117, 3-amino-N-methyl-6-(3-{[4-(phenylmethyl)piperazin-1-yl]carbonyl}phenyl)pyrazine-2-carboxamide], the IC50 was in the range of 1 to 10 µM.

On to `CNC(=O)c1nc(-c2cccc(C(=O)NC3CCN(Cc4ccccc4)CC3)c2)cnc1N` [Example 118, 3-amino-N-methyl-6-[3-({[1-(phenylmethyl)piperidin-4-yl]amino}carbonyl)phenyl]pyrazine-2-carboxamide], for which the 50% inhibitory concentration (IC50) is 0.05 to 1 µM.

Take `CNC(=O)c1nc(-c2cccc(NC(=O)c3ccc(C)cc3)c2)cnc1N` [Example 119, 3-amino-N-methyl-6-(3-{[(4-methylphenyl)carbonyl]amino}phenyl)pyrazine-2-carboxamide]: the 50% inhibitory concentration (IC50) was 0.05 to 1 µM.

`CNC(=O)c1nc(-c2cccc(C(=O)NCc3cnc(C)cn3)c2)cnc1N` [Example 120, 3-amino-N-methyl-6-[3-({[(5-methylpyrazin-2-yl)methyl]amino}carbonyl)phenyl]pyrazine-2-carboxamide]: the IC50 lay in the range of 1 to 10 µM.
